Experimental data reported in US9447028B2, “Therapeutic aryl-amido-aryl compounds and their use” (King's College London, priority 2009, dated 2016).

Experiments:
Type in all cases: cell-based
RARα = target: T1, RARα (Homo sapiens, UniProt P10276); assay: Transactivation assay for RAR alpha (gal4-RAR fusion, luciferase reporter, COS-7 cells); conditions: for RARα/RARβ ratio (*): fold-selectivity for RARα over RARβ; for RARα activity ratio: ratio of test compound EC50 to that of atRA on the same plate
T1 construct: gal4 (fusion partner); expressed in transfected cells; host or cells: COS-7
T1 sequence (P10276 183-417 limits assumed): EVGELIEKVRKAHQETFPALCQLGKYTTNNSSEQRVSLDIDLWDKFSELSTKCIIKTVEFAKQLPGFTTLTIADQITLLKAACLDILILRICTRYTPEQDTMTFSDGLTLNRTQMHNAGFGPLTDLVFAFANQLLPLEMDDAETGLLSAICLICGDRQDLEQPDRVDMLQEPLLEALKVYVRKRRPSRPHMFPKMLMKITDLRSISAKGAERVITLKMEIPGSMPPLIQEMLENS
Experimental: (§1) Transcriptional transactivation assays were performed with gal4 fusion receptor constructs, created using each of the RAR ligand binding domains, co-transfected with the pFR-luc (Stratagene™) reporter construct in COS-7 cells.
(§2) Briefly, on day 1, 96 well plates were seeded with 8000 cells per well then left to recover overnight. On day 2, the cells were co-transfected with 100 ng of reporter plasmid and 10 ng of the appropriate receptor plasmid per well using lipofectamine (Invitrogen™). On day 3, the lipofectamine containing media was replaced by a DMEM without phenol red, followed by the addition of test compound dissolved in 1 μL of DMSO to each well's 100 μL total volume. Finally, on day 4, the cells were lysed and their luciferase substrate was provided by the BrightGlo™ reagent (Promega™), the plates were then read on the MicroBeta TriLux™ (Perkin Elmer™).
(§3) Where replicate data has been generated, the data are quoted as a ratio of the mean EC50 from the separate experiments.

RARβ = target: T2, RARβ (Homo sapiens, UniProt P10826); assay: Transactivation assay for RAR beta (gal4-RAR fusion, luciferase reporter, COS-7 cells); conditions: ratio of test compound EC50 to that of atRA; inactive = no agonist action at the highest concentration tested
T2 construct: gal4 (fusion partner); expressed in transfected cells; host or cells: COS-7
T2 sequence (P10826 183-417 limits assumed): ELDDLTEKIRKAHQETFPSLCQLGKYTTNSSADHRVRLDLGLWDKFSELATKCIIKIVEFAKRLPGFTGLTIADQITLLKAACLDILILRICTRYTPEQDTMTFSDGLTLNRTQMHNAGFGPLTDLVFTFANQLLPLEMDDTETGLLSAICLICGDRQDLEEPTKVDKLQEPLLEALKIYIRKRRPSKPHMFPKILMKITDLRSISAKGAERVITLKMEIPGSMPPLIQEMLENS
Experimental: as §1, §2, §3

RARγ = target: T3, RARγ (Homo sapiens, UniProt P13631); assay: Transactivation assay for RAR gamma (gal4-RAR fusion, luciferase reporter, COS-7 cells); conditions: ratio of test compound EC50 to that of atRA; inactive = no agonist action at the highest concentration tested
T3 construct: gal4 (fusion partner); expressed in transfected cells; host or cells: COS-7
T3 sequence (P13631 185-419 limits assumed): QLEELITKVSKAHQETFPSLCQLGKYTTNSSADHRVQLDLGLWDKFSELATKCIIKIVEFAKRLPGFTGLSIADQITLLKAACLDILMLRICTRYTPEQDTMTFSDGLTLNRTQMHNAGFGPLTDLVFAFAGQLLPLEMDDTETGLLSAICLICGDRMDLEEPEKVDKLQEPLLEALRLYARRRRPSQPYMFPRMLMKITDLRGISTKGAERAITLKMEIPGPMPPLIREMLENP
Experimental: as §1, §2, §3

Structure (SMILES) | RARα/RARβ ratio (*) (RARα) | RARα activity ratio (RARα) | RARβ activity ratio (RARβ) | RARγ activity ratio (RARγ)
O=C(O)c1ccc(NC(=O)c2cc(Cl)c(OC3CCCC3)c(C(F)(F)F)c2)cc1 [AAA-043, 4-(3-Chloro-4-(cyclopentyloxy)-5-(trifluoromethyl)benzamido)benzoic acid] | 27 | 2 | 53 | 688
O=C(O)c1ccc(NC(=O)c2cc(Cl)c(OC3CCCC3)c(OC3CCCC3)c2)cc1 [AAA-044, 4-(3-Chloro-4,5-bis(cyclopentyloxy)benzamido)benzoic acid] | 32 | 1.7 | 55 | 571
O=C(O)c1ccc(NC(=O)c2cc(Cl)c(OCc3ccccc3)c(OCc3ccccc3)c2)cc1 [AAA-045, 4-(3,4-bis(benzyloxy)-5-chlorobenzamido)benzoic acid] | 39 | 7.3 | 283 | 3651
Cc1cc(NC(=O)c2cc(Cl)c(OC3CCCC3)c(OC3CCCC3)c2)ccc1C(=O)O [AAA-046, 4-(3-Chloro-4,5-bis(cyclopentyloxy)benzamido)-2-methylbenzoic acid] | 43 | 2.8 | 121 | 698
O=C(O)c1ccc(NC(=O)c2cc(Cl)c(OC3CCCCC3)c(OC3CCCCC3)c2)cc1 [AAA-047, 4-(3-Chloro-4,5-bis(cyclohexyloxy)benzamido)benzoic acid] | 2 | 11 | 22 | 270
CC(C)(C)Oc1cc(C(=O)Nc2ccc(C(=O)O)cc2)cc(Cl)c1OC(C)(C)C [AAA-048, 4-(3,4-Di-tert-butoxy-5-chlorobenzamido)benzoic acid] | 44 | 0.86 | 38 | 162
Cc1cc(NC(=O)c2cc(Cl)c(OC(C)(C)C)c(OC(C)(C)C)c2)ccc1C(=O)O [AAA-049, 4-(3,4-Di-tert-butoxy-5-chlorobenzamido)-2-methylbenzoic acid] | 13200 | 0.64 | 8460 | 82
Cc1cc(NC(=O)c2cc(Cl)c(OC(C)C)c(OC(C)C)c2)ccc1C(=O)O [AAA-051, 4-(3-Chloro-4,5-diisopropoxybenzamido)-2-methylbenzoic acid] | 45 | 0.97 | 43 | 2859
Cc1cc(NC(=O)c2cc(Br)c(OC(C)C)c(Br)c2)ccc1C(=O)O [AAA-052, 4-(3,5-Dibromo-4-isopropoxybenzamido)-2-methylbenzoic acid] | 84 | 0.25 | 21 | 1923
CCOc1c(Br)cc(C(=O)Nc2ccc(C(=O)O)c(C)c2)cc1Br [AAA-053, 4-(3,5-Dibromo-4-ethoxybenzamido)-2-methylbenzoic acid] | 336 | 4.2 | 1410 | 414
Cc1cc(NC(=O)c2cc(Cl)c(OC3CCCC3)c(Cl)c2)ccc1C(=O)O [AAA-054, 4-(3,5-Dichloro-4-(cyclopentyloxy)benzamido)-2-methylbenzoic acid] | 36 | 0.59 | 21 | 51
COc1c(Cl)cc(C(=O)Nc2ccc(C(=O)O)c(C)c2)cc1Cl [AAA-055, 4-(3,5-Dichloro-4-methoxybenzamido)-2-methylbenzoic acid] | 107 | 18 | 1926 | 69000
Cc1cc(NC(=O)c2cc(Cl)c(OC(C)(C)C)c(Cl)c2)ccc1C(=O)O [AAA-056, 4-(4-tert-Butoxy-3,5-dichlorobenzamido)-2-methylbenzoic acid] | >250 | 3.1 | >770 | 22
CCOc1c(Cl)cc(C(=O)Nc2ccc(C(=O)O)c(O)c2)cc1Cl [AAA-057, 4-(3,5-Dichloro-4-ethoxybenzamido)-2-hydroxybenzoic acid] | 37 | 33 | 1226 | 4920
CCOc1c(OC2CCCC2)cc(C(=O)Nc2ccc(C(=O)O)cc2)cc1OC1CCCC1 [AAA-058, 4-(3,5-Bis(cyclopentyloxy)-4-ethoxybenzamido)benzoic acid] | 145 | 29 | 4200 | 550
CC(C)Oc1cc(C(=O)Nc2ccc(C(=O)O)cc2)cc(OC(C)C)c1OC(C)C [AAA-059, 4-(3,4,5-Triisopropoxybenzamido)benzoic acid] | 96 | 27 | 2600 | 225
CC(C)(C)Oc1cc(C(=O)Nc2ccc(C(=O)O)cc2)cc(OC(C)(C)C)c1OC(C)(C)C [AAA-060, 4-(3,4,5-Tri-tert-butoxybenzamido)benzoic acid] | 50 | 45 | 2267 | 30
CCOc1c(OC(C)C)cc(C(=O)Nc2ccc(C(=O)O)c(C)c2)cc1OC(C)C [AAA-061, 4-(4-Ethoxy-3,5-diisopropoxybenzamido)-2-methylbenzoic acid] | 118 | 44 | 5200 | 1531
COc1c(OC(C)C)cc(C(=O)Nc2ccc(C(=O)O)cc2)cc1OC(C)C [AAA-062, 4-(3,5-Diisopropoxy-4-methoxybenzamido)benzoic acid] | 8 | 85 | 714 | 5328
COc1c(OC(C)C)cc(C(=O)Nc2ccc(C(=O)O)c(C)c2)cc1OC(C)C [AAA-063, 4-(3,5-Diisopropoxy-4-methoxybenzamido)-2-methylbenzoic acid] | 22 | 76 | 1686 | 6429
CCOc1c(OC(C)C)cc(C(=O)Nc2ccc(C(=O)O)c(F)c2)cc1OC(C)C [AAA-064, 4-(3,5-Diisopropoxy-4-ethoxybenzamido)-2-fluorobenzoic acid] | >40 | 81 | >3500 | 1977
COc1c(Cl)cc(C(=O)Nc2ccc(C(=O)O)cn2)cc1C(F)(F)F [AAA-065, 6-(3-Chloro-4-methoxy-5-(trifluoromethyl)benzamido)nicotinic acid] | 9 | 15 | 140 | 3521
COc1c(Cl)cc(C(=O)Nc2ccc(C(=O)O)cc2F)cc1C(F)(F)F [AAA-067, 4-(3-Chloro-4-methoxy-5-(trifluoromethyl)benzamido)-3-fluorobenzoic acid] | 6 | 50 | 279 | 6047
CCOc1c(Cl)cc(C(=O)Nc2ccc(C(=O)O)c(F)c2)cc1C(F)(F)F [AAA-068, 4-(3-Chloro-4-ethoxy-5-(trifluoromethyl)benzamido)-2-fluorobenzoic acid] | 140 | 7 | 976 | 60833
CC(C)Oc1c(Cl)cc(C(=O)Nc2ccc(C(=O)O)c(F)c2)cc1C(F)(F)F [AAA-069, 4-(3-Chloro-4-isopropoxy-5-(trifluoromethyl)benzamido)-2-fluorobenzoic acid] | 421 | 1.2 | 505 | 3380
COc1c(Cl)cc(C(=O)Nc2ccc(C(=O)O)c(O)c2)cc1C(F)(F)F [AAA-070, 4-(3-Chloro-4-methoxy-5-(trifluoromethyl)benzamido)-2-hydroxybenzoic acid] | 701 | 3.4 | 2386 | >62500
